Source: patent US20250235543A1, “MODIFIED PROTEINS AND PROTEIN DEGRADERS” (Cullgen (Shanghai), Inc., priority 2021, published 2025)
Where two headings read alike, the source gives them in different places.

Key:
[1] = system: cyclin D1; test: Cyclin D1 percentage degradation in Calu-1 cells (immunoblotting); format: cell-based; settings: 16 hours
How it was run: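 Cyclin D1 degradation was assessed by western blot. Clarified lysates, obtained by RIPA lysis with inhibitors and centrifugation at 13,000 rpm, were normalized by BCA protein assay and separated by SDS-PAGE. Bands were detected with Western ECL Substrate on a Bio-Rad ChemiDoc MP Imaging system and quantified in Image Lab software to derive percentage degradation.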

[2] = molecular target: T1, CDK4 (Homo sapiens, UniProt P11802); test: CDK4 percentage degradation in Calu-1 cells (immunoblotting); format: cell-based; settings: for inhibition at 10 µM: read-out: CDK4 Degradation (10 μM); for inhibition at 0.2 µM: read-out: CDK4 Degradation (200 nM)
T1 construct: endogenous in cells; host or cells: Calu-1
How it was run: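 CDK4 degradation was measured by immunoblotting. Cells were washed in cold PBS and lysed in RIPA buffer with inhibitors for 30 min at 4° C., then spun at 13,000 rpm to clear. After BCA protein determination, lysates were heated at 99° C. for 5 min in Laemmli buffer, resolved on SDS-PAGE, imaged on a ChemiDoc MP with ECL substrate, and band intensities quantified.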

T1 sequence (P11802 2-303 limits assumed): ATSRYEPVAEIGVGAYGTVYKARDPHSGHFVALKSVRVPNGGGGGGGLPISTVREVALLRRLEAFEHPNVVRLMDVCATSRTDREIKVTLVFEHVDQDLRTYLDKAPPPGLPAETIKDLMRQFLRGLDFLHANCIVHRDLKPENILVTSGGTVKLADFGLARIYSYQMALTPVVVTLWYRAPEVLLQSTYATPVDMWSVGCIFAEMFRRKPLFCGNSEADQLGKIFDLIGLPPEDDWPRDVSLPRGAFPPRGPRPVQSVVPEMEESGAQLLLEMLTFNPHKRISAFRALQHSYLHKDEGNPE
T1 sequence (P24385 whole entry partner): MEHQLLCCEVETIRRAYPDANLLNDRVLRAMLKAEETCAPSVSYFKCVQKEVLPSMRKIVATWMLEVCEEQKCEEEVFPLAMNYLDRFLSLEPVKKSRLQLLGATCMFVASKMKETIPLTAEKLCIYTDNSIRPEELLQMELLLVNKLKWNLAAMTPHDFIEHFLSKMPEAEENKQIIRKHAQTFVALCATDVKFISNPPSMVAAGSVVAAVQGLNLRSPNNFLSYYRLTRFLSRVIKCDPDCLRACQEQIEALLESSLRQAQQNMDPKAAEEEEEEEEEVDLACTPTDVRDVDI
T1 sequence (Q16531 2-1140 limits assumed, further chain): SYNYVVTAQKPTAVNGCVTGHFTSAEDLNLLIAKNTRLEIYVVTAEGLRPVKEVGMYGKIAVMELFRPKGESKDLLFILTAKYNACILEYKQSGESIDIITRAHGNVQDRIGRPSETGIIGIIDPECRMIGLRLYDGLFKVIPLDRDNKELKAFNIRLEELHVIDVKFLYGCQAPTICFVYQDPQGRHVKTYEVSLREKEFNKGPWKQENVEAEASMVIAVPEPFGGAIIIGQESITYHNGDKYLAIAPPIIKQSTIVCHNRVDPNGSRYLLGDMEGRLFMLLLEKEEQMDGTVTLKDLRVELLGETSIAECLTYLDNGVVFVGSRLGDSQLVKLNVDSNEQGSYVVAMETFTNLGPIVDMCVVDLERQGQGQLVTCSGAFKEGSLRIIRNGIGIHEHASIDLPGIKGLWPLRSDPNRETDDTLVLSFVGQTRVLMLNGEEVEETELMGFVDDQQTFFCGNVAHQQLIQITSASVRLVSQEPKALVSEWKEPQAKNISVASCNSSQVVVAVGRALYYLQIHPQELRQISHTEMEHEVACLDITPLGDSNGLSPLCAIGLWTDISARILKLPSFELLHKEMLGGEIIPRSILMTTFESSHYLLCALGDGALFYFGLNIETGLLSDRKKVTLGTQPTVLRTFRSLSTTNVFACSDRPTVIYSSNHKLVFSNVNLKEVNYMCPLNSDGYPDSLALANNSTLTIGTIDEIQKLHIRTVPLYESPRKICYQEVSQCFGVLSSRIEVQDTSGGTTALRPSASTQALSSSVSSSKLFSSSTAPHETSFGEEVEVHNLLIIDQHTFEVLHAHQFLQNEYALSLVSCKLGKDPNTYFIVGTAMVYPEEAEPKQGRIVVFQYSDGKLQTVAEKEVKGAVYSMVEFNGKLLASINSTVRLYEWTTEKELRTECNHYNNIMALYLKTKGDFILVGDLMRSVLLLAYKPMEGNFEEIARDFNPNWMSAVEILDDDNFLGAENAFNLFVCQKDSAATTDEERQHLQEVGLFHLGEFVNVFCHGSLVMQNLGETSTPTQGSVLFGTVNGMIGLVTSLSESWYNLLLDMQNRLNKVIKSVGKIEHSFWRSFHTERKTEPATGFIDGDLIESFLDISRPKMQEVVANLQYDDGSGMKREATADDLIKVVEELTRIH

Cc1nc(NC(=O)c2ccccc2NC(=O)CCNC(=O)CN2CCN(c3ccc(Nc4ncc5cc(C(=O)N(C)C)n(C6CCCC6)c5n4)nc3)CC2)sc1C [CPD-287, 7-Cyclopentyl-2-((5-(4-(2-((3-((2-((4,5-dimethylthiazol-2-yl)carbamoyl)phenyl)amino)-3-oxopropyl)amino)-2-oxoethyl)piperazin-1-yl)pyridin-2-yl)amino)-N,N-dimethyl-7H-pyrrolo[2,3-d]pyrimidine-6-carboxamide]
CyclinD1 Degradation (10 μM) [1]: A (protein percentage degradation >= 80%) | inhibition at 10 µM ([2]; Calu-1 cells, 16 hours): 30 to 50%

Cc1nc(NC(=O)c2ccccc2NC(=O)CCCCCCCNC(=O)CN2CCN(Cc3ccc(Nc4ncc(F)c(-c5cc(F)c6nc(C)n(C(C)C)c6c5)n4)nc3)CC2)sc1C [CPD-278, N-(4,5-Dimethylthiazol-2-yl)-2-(8-(2-(4-((6-((5-fluoro-4-(4-fluoro-1-isopropyl-2-methyl-1H-benzo[d]imidazol-6-yl)pyrimidin-2-yl)amino)pyridin-3-yl)methyl)piperazin-1-yl)acetamido)octanamido)benzamide]
CyclinD1 Degradation (10 μM) [1]: D (protein percentage degradation < 30%) | inhibition at 10 µM ([2]; Calu-1 cells, 16 hours): < 30%

CC(=O)c1c(C)c2cnc(Nc3ccc(N4CCN(CC(=O)NCC(=O)Nc5ccccc5C(=O)Nc5nc(C)c(C)s5)CC4)cn3)nc2n(C2CCCC2)c1=O [CPD-180, 2-(2-(2-(4-(6-((6-Acetyl-8-cyclopentyl-5-methyl-7-oxo-7,8-dihydropyrido[2,3-d]pyrimidin-2-yl)amino)pyridin-3-yl)piperazin-1-yl)acetamido)acetamido)-N-(4,5-dimethylthiazol-2-yl)benzamide]
CyclinD1 Degradation (200 nM) [1]: D (protein percentage degradation <30%) | inhibition at 0.2 µM ([2]; Calu-1 cells, 200 nM, 16 hours): < 30%

CC(=O)c1c(C)c2cnc(Nc3ccc(N4CCN(CC(=O)NCCOCCOCCOCCOCCOCCNc5ccc(C(=O)Nc6ccc(C)cc6)c(C)c5)CC4)cn3)nc2n(C2CCCC2)c1=O [CPD-025, 4-((1-(4-(6-((6-Acetyl-8-cyclopentyl-5-methyl-7-oxo-7,8-dihydropyrido[2,3-d]pyrimidin-2-yl)amino)pyridin-3-yl)piperazin-1-yl)-2-oxo-6,9,12,15,18-pentaoxa-3-azaicosan-20-yl)amino)-2-methyl-N-(p-tolyl)benzamide]
CyclinD1 Degradation (200 nM) [1]: D (protein percentage degradation <30%) | inhibition at 0.2 µM ([2]; Calu-1, 16 h): < 30%

Cc1nc(NC(=O)c2ccccc2NC(=O)CCOCCOCCOCCOCCNC(=O)CN2CCN(c3ccc(Nc4ncc5cc6n(c5n4)C4(CCCCC4)CNC6=O)nc3)CC2)sc1C [CPD-325, N-(4,5-Dimethylthiazol-2-yl)-2-(2-oxo-1-(4-(6-((6′-oxo-7′,8′-dihydro-6′H-spiro[cyclohexane-1,9′-pyrazino[1′,2′:1,5]pyrrolo[2,3-d]pyrimidin]-2′-yl)amino)pyridin-3-yl)piperazin-1-yl)-6,9,12,15-tetraoxa-3-azaoctadecan-18-amido)benzamide]
CyclinD1 Degradation (10 μM) [1]: A (protein percentage degradation >= 80%) | inhibition at 10 µM ([2]; Calu-1 cells, 16 hours): 50 to 80%

CC(=O)c1c(C)c2cnc(Nc3ccc(N4CCN(CC(=O)NCCOCCOCCC(=O)Nc5ccc(N(C)C)cc5C(=O)Nc5nc(C)c(C)s5)CC4)cn3)nc2n(C2CCCC2)c1=O [CPD-151, 2-(3-(2-(2-(2-(4-(6-((6-Acetyl-8-cyclopentyl-5-methyl-7-oxo-7,8-dihydropyrido[2,3-d]pyrimidin-2-yl)amino)pyridin-3-yl)piperazin-1-yl)acetamido)ethoxy)ethoxy)propanamido)-5-(dimethylamino)-N-(4,5-dimethylthiazol-2-yl)benzamide]
CyclinD1 Degradation (200 nM) [1]: C (protein percentage degradation <50%, and >=30%) | inhibition at 0.2 µM ([2]; Calu-1 cells, 200 nM, 16 hours): 50 to 80%

CC(=O)c1c(C)c2cnc(Nc3ccc(N4CCN(C(=O)CCOCCOCCOCCOCCOCCC(=O)Nc5ccccc5C(=O)Nc5nc(C)c(C)s5)CC4)cn3)nc2n(C2CCCC2)c1=O [CPD-163, 19-(4-(6-((6-Acetyl-8-cyclopentyl-5-methyl-7-oxo-7,8-dihydropyrido[2,3-d]pyrimidin-2-yl)amino)pyridin-3-yl)piperazin-1-yl)-N-(2-((4,5-dimethylthiazol-2-yl)carbamoyl)phenyl)-19-oxo-4,7,10,13,16-pentaoxanonadecanamide]
CyclinD1 Degradation (200 nM) [1]: A (protein percentage degradation >=80%) | inhibition at 0.2 µM ([2]; Calu-1, 16 h): 50 to 80%

CC(=O)c1c(C)c2cnc(Nc3ccc(N4CCN(C(=O)CCOCCOCCNc5cccc(C(=O)Nc6nc(C)c(C)s6)c5C)CC4)cn3)nc2n(C2CCCC2)c1=O [CPD-121, 3-((2-(2-(3-(4-(6-((6-Acetyl-8-cyclopentyl-5-methyl-7-oxo-7,8-dihydropyrido[2,3-d]pyrimidin-2-yl)amino)pyridin-3-yl)piperazin-1-yl)-3-oxopropoxy)ethoxy)ethyl)amino)-N-(4,5-dimethylthiazol-2-yl)-2-methylbenzamide]
CyclinD1 Degradation (200 nM) [1]: C (protein percentage degradation <50%, and >=30%) | inhibition at 0.2 µM ([2]; Calu-1 cells, 200 nM, 16 hours): 30 to 50%

CC(=O)c1c(C)c2cnc(Nc3ccc(N4CCN(C(=O)CCOCCOCCOCCNc5cccc(C(=O)Nc6nc(C)c(C)s6)c5C)CC4)cn3)nc2n(C2CCCC2)c1=O [CPD-122, 3-((2-(2-(2-(3-(4-(6-((6-Acetyl-8-cyclopentyl-5-methyl-7-oxo-7,8-dihydropyrido[2,3-d]pyrimidin-2-yl)amino)pyridin-3-yl)piperazin-1-yl)-3-oxopropoxy)ethoxy)ethoxy)ethyl)amino)-N-(4,5-dimethylthiazol-2-yl)-2-methylbenzamide]
CyclinD1 Degradation (200 nM) [1]: A (protein percentage degradation >=80%) | inhibition at 0.2 µM ([2]; Calu-1, 16 h): 50 to 80%

Cc1nc(NC(=O)c2ccccc2NC(=O)CCCCCCCCNC(=O)CN2CCN(c3ccc(Nc4ncc(F)c(-c5cc(F)c6nc(C)n(C(C)C)c6c5)n4)nc3)CC2)sc1C [CPD-307, N-(4,5-Dimethylthiazol-2-yl)-2-(9-(2-(4-(6-((5-fluoro-4-(4-fluoro-1-isopropyl-2-methyl-1H-benzo[d]imidazol-6-yl)pyrimidin-2-yl)amino)pyridin-3-yl)piperazin-1-yl)acetamido)nonanamido)benzamide]
CyclinD1 Degradation (10 μM) [1]: D (protein percentage degradation < 30%) | inhibition at 10 µM ([2]; Calu-1 cells, 16 hours): < 30%

CC(=O)c1c(C)c2cnc(Nc3ccc(N4CCN(CC(=O)NCCCCCNc5ccccc5C(=O)Nc5nc(C)c(C)s5)CC4)cn3)nc2n(C2CCCC2)c1=O [CPD-363, 2-((5-(2-(4-(6-((6-Acetyl-8-cyclopentyl-5-methyl-7-oxo-7,8-dihydropyrido[2,3-d]pyrimidin-2-yl)amino)pyridin-3-yl)piperazin-1-yl)acetamido)pentyl)amino)-N-(4,5-dimethylthiazol-2-yl)benzamide]
CyclinD1 Degradation (200 nM) [1]: A (protein percentage degradation >=80%) | inhibition at 0.2 µM ([2]; Calu-1 cells, 200 nM, 16 hours): 50 to 80%

Cc1nc(NC(=O)c2ccccc2NC(=O)CCCCCCCNC(=O)CN2CCN(c3ccc(Nc4ncc(F)c(-c5cc(F)c6nc(C)n(C(C)C)c6c5)n4)nc3)CC2)sc1C [CPD-306, N-(4,5-Dimethylthiazol-2-yl)-2-(8-(2-(4-(6-((5-fluoro-4-(4-fluoro-1-isopropyl-2-methyl-1H-benzo[d]imidazol-6-yl)pyrimidin-2-yl)amino)pyridin-3-yl)piperazin-1-yl)acetamido)octanamido)benzamide]
CyclinD1 Degradation (10 μM) [1]: D (protein percentage degradation < 30%) | inhibition at 10 µM ([2]; Calu-1 cells, 16 hours): < 30%

Cc1nc(NC(=O)c2ccccc2NC(=O)CCNC(=O)CN2CCN(c3ccc(Nc4ncc5cc6n(c5n4)C4(CCCCC4)CNC6=O)nc3)CC2)sc1C [CPD-315, N-(4,5-Dimethylthiazol-2-yl)-2-(3-(2-(4-(6-((6′-oxo-7′,8′-dihydro-6′H-spiro[cyclohexane-1,9′-pyrazino[1′,2′:1,5]pyrrolo[2,3-d]pyrimidin]-2′-yl)amino)pyridin-3-yl)piperazin-1-yl)acetamido)propanamido)benzamide]
CyclinD1 Degradation (10 μM) [1]: D (protein percentage degradation < 30%) | inhibition at 10 µM ([2]; Calu-1 cells, 16 hours): < 30%

CC(=O)c1c(C)c2cnc(Nc3ccc(N4CCN(CC(=O)NCCOCCOCCC(=O)Nc5ccccc5C(=O)Nc5nc(C6CCN(C)CC6)c(C)s5)CC4)cn3)nc2n(C2CCCC2)c1=O [CPD-080, 2-(3-(2-(2-(2-(4-(6-((6-Acetyl-8-cyclopentyl-5-methyl-7-oxo-7,8-dihydropyrido[2,3-d]pyrimidin-2-yl)amino)pyridin-3-yl)piperazin-1-yl)acetamido)ethoxy)ethoxy)propanamido)-N-(5-methyl-4-(1-methylpiperidin-4-yl)thiazol-2-yl)benzamide]
CyclinD1 Degradation (200 nM) [1]: D (protein percentage degradation <30%) | inhibition at 0.2 µM ([2]; Calu-1 cells, 200 nM, 16 hours): < 30%

CC(=O)c1c(C)c2cnc(Nc3ccc(N4CCN(CC(=O)NCCOCCOCCC(=O)Nc5ccc(Br)cc5C(=O)Nc5nc(C)c(C)s5)CC4)cn3)nc2n(C2CCCC2)c1=O [CPD-145, 2-(3-(2-(2-(2-(4-(6-((6-Acetyl-8-cyclopentyl-5-methyl-7-oxo-7,8-dihydropyrido[2,3-d]pyrimidin-2-yl)amino)pyridin-3-yl)piperazin-1-yl)acetamido)ethoxy)ethoxy)propanamido)-5-bromo-N-(4,5-dimethylthiazol-2-yl)benzamide]
CyclinD1 Degradation (200 nM) [1]: D (protein percentage degradation <30%) | inhibition at 0.2 µM ([2]; Calu-1 cells, 200 nM, 16 hours): < 30%

CC(=O)c1c(C)c2cnc(Nc3ccc(N4CCN(CC(=O)NCCOCCOCCNc5cccc(C(=O)Nc6cc(C)n(C)n6)c5C)CC4)cn3)nc2n(C2CCCC2)c1=O [CPD-067, 3-((2-(2-(2-(2-(4-(6-((6-Acetyl-8-cyclopentyl-5-methyl-7-oxo-7,8-dihydropyrido[2,3-d]pyrimidin-2-yl)amino)pyridin-3-yl)piperazin-1-yl)acetamido)ethoxy)ethoxy)ethyl)amino)-N-(1,5-dimethyl-1H-pyrazol-3-yl)-2-methylbenzamide]
CyclinD1 Degradation (200 nM) [1]: A (protein percentage degradation >=80%) | inhibition at 0.2 µM ([2]; Calu-1 cells, 200 nM, 16 hours): 50 to 80%
